{"source": "patent US12377112B2", "about": "“Methods of treating neurocognitive disorders, chronic pain and reducing inflammation” (priority 2019, dated 2025)", "key": {"male CD1 mice": {"system": "male CD1 mice", "assay": "Pentylenetetrazol (PTZ) infusion seizure threshold", "type": "in vivo, mouse", "details": "10 mg/kg", "source_text": "Administration of chemical convulsant agents such as Pentylenetetrazol (PTZ) are used to mimic behavioral aspects of human epilepsy. PTZ causes myoclonic jerking movements, clonic convulsions or forelimb/hindlimb tonic extension in rodents. The PTZ model is primarily used to evaluate anti-convulsant properties of antiepileptic drugs (AED's) by identifying compounds which raise seizure threshold but can also be used to identify pro-convulsant agents that lower seizure threshold. PTZ is a well-established model for acute and repetitive seizures, and is accepted for use for screening AED action. PTZ induces myoclonic and generalized tonic-clonic seizures.\nMale CD1 mice (age 6-8 weeks, weight 30.0-42.9 g, source: Charles River UK) were used in this study. […] During this time-infusion, mice were individually assessed for the onset of myoclonic, forelimb tonus and hindlimb tonus seizures. The latencies (in seconds) from start of infusion to the appearance of first myoclonus, forelimb tonic and hind limb tonic extension were recorded. […] For animals reaching this cut off, the dose of PTZ in mg/kg infused over the 120 s was calculated as the threshold dose. […]\nData was analysed using one way ANOVA in which the dose of PTZ required to induce seizure was compared between each treatment groups and vehicle. […]"}, "patients": {"system": "patients", "details": "human, in vivo; cited from earlier work"}, "[1]": {"system": "children aged 7 to 14 years old with ADHD", "details": "6-week trial, children aged 7 to 14 years with ADHD; cited from earlier work"}}}
{"smiles": "CN1C(=O)CN=C(c2ccccc2)c2cc(Cl)ccc21", "note": "[Diazepam, diazepam]", "values": [{"measurement": "Dose of PTZ required to induce myoclonic, forelimb and hindlimb tonic seizures", "setting": "male CD1 mice", "result": "significantly increased"}]}
{"smiles": "CNCC[C@@H](Oc1ccccc1C)c1ccccc1", "note": "[Atomoxetine, atomoxetine]", "values": [{"measurement": "Decreased appetite, % of patients", "setting": "patients", "result": "15-20%"}]}
{"smiles": "NC(=O)C[S+]([O-])C(c1ccccc1)c1ccccc1", "note": "(stereo not drawn) [modafinil]", "values": [{"measurement": "Response rate compared to placebo", "setting": "[1]", "result": 78, "unit": "%"}]}
